Experimental data reported in PubChem BioAssay (NCI).
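Dose response: 5 concentrations. Exposure: 48 h. Format: 96-well plates. Endpoint: linear interpolation; highest concentration if not reached. The concentration for full growth arrest is given as TGI.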

Experiments:
Experiment in all cases: NCI anticancer screen, dose series, 48 h
SNB-75 CNS = system: SNB-75 CNS
SF-268 CNS = system: SF-268 CNS
SNB-19 CNS = system: SNB-19 CNS
LOX IMVI melanoma = system: LOX IMVI melanoma
COLO 205 colon = system: COLO 205 colon
A549 NSCLC = system: A549 NSCLC
SK-MEL-28 melanoma = system: SK-MEL-28 melanoma
SK-MEL-5 melanoma = system: SK-MEL-5 melanoma
CAKI-1 renal = system: CAKI-1 renal
U251 CNS = system: U251 CNS
SF-295 CNS = system: SF-295 CNS
SR leukemia = system: SR leukemia
TK-10 renal = system: TK-10 renal
NCI/ADR-RES ovarian = system: NCI/ADR-RES ovarian
NCI-H522 lung = system: NCI-H522 lung
NCI-H460 lung = system: NCI-H460 lung
OVCAR-4 ovarian = system: OVCAR-4 ovarian

Measured: TGI

COc1nc(N)c(N=CC(OC(C)=O)C(OC(C)=O)C(COC(C)=O)OC(C)=O)c(=O)n1C (configuration not stated)
> 100 µM: SNB-75 CNS | SF-268 CNS | SNB-19 CNS | LOX IMVI melanoma | COLO 205 colon | A549 NSCLC | SK-MEL-28 melanoma | SK-MEL-5 melanoma | CAKI-1 renal | U251 CNS | SF-295 CNS | SR leukemia | TK-10 renal | NCI/ADR-RES ovarian | NCI-H522 lung | NCI-H460 lung | OVCAR-4 ovarian
